In BindingDB's records for doi:10.1016/j.chembiol.2004.02.012 (Triad Therapeutics, 2004):

Assays:
Assay in all cases: Steady-State Inhibition Assay
Details in all cases: pH 7.4
[1] = biological target: 4-hydroxy-tetrahydrodipicolinate reductase (Escherichia coli (strain K12), UniProt P04036)
Text: (§1) All reactions were monitored spectrophotometrically at 340 nm by using initial rates from the first 5% of reaction.

[2] = biological target: T1, Quinone-dependent D-lactate dehydrogenase (Escherichia coli (strain K12), UniProt P06149)
T1 sequence (P06149 whole entry): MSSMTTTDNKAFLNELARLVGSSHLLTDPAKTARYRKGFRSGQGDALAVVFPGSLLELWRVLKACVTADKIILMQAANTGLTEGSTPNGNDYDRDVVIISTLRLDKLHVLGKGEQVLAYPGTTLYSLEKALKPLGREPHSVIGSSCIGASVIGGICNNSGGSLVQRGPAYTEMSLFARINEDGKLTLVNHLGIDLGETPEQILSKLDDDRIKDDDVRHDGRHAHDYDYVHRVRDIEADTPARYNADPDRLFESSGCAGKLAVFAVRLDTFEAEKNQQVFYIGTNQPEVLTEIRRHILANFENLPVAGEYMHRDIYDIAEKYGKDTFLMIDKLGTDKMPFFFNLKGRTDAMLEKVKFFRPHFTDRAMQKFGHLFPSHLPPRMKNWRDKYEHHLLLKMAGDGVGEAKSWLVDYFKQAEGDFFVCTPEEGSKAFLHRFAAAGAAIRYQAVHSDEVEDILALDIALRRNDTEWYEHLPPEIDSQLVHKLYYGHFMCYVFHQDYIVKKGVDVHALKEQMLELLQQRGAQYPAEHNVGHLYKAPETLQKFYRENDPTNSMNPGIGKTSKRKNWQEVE
Text: as §1

[3] = biological target: T2, 1-deoxy-D-xylulose 5-phosphate reductoisomerase (Escherichia coli (strain K12), UniProt P45568)
T2 sequence (P45568 whole entry): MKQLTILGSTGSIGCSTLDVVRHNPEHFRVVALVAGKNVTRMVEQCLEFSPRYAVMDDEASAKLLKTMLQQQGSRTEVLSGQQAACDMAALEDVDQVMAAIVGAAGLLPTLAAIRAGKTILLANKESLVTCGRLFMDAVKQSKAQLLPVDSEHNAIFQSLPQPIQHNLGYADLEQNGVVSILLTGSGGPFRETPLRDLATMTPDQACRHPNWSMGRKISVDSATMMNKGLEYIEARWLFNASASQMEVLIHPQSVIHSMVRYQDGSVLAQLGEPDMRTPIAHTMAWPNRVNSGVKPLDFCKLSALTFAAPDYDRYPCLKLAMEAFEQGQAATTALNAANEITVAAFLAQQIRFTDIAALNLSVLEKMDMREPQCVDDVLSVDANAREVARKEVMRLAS
Text: as §1

Sequence of 4-hydroxy-tetrahydrodipicolinate reductase (P04036 whole entry): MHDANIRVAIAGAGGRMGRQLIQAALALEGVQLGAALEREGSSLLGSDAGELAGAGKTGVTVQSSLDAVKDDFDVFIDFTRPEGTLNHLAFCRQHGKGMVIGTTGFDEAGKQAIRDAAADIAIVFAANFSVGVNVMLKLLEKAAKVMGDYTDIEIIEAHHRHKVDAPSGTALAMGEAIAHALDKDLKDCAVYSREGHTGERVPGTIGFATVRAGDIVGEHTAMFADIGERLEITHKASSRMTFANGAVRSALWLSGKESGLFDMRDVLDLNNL

| Ki [1] | Ki [2] | Ki [3] | SMILES |
| --- | --- | --- | --- |
| 0.026 µM | 55 µM | > 50 µM | O=C(O)CN1C(=O)/C(=C/c2ccc(O)c(O)c2)SC1=S [Bi-ligand, 1] |
| > 50 µM | 0.042 µM | 10 µM | O=C(CCCCN1C(=O)/C(=C/c2ccc(O)c(O)c2)SC1=S)NCc1ccc(Cl)c(Cl)c1 [Bi-ligand, 2] |
| > 25 µM | 12 µM | 0.202 µM | Cc1ccc(Oc2ccc(NC(=O)CN3C(=O)/C(=C/c4ccc(O)c(O)c4)SC3=S)cc2)cc1 [Bi-ligand, 3] |
| 0.1 µM | 0.62 µM | 7.9 µM | O=C(CN1C(=O)/C(=C/c2ccc(O)c(O)c2)SC1=S)NCCSc1cc(C(=O)O)nc(C(=O)O)c1 [Bi-ligand, 4] |
